This passage reports GI50 and TGI results from PubChem BioAssay (NCI).

Molecules are shown by their SMILES.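 Where inhibition never reached the appropriate level, the endpoint shown equals the highest concentration tested. Otherwise, values were interpolated linearly from a five-concentration, 48-hour dose response in 96-well plates. GI50 is the concentration that inhibits growth by half. Definition used: TGI = concentration required for complete inhibition of growth.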 Some results are limits rather than exact numbers.

Among the test systems are BT-549 breast; MDA-MB-231 breast; IGROV1 ovarian; A498 renal; HT29 colon; HS 578T breast; SF-268 CNS; HL-60(TB) leukemia; MDA-MB-435; SNB-19 CNS.
Common to all, as to experiment: NCI anticancer screen, dose series, 48 h

For `COc1ccc(-c2cc(/C=C3\C(=O)Nc4ccc(Cl)cc43)[nH]n2)cc1`, the GI50 in the assay with BT-549 breast is 6.85 µM; in the assay with MDA-MB-231 breast, 3.58 µM; in the assay with IGROV1 ovarian, 5 µM; in the assay with A498 renal it was 3.83 µM; in the assay with HT29 colon it was 3.35 µM; with HS 578T breast it was 3.52 µM. Moreover, the GI50 with SF-268 CNS is 6.48 µM; in the assay with HL-60(TB) leukemia, 3.04 µM; in the assay with MDA-MB-435, 1.86 µM; in the assay on SNB-19 CNS, 10.4 µM. The TGI in the assay with BT-549 breast turned out to be 19.3 µM; in the assay with MDA-MB-231 breast it was 15.5 µM; in the assay with IGROV1 ovarian it was 17.9 µM; in the assay with A498 renal it was 16.3 µM; in the assay on HT29 colon, 10.9 µM; in the assay on HS 578T breast it was 22.4 µM. Moreover, the TGI was 19.1 µM with SF-268 CNS, 10.4 µM in the assay with HL-60(TB) leukemia, 4.47 µM in the assay with MDA-MB-435 and 28 µM in the assay with SNB-19 CNS.

`C=C1C(=O)O[C@H]2[C@H]1CC/C(COC(=O)NCc1ccc(Cn3c(=O)sn(CCCCl)c3=O)cc1)=C\CC[C@@]1(C)O[C@@H]21`: the GI50 in the assay on BT-549 breast was 1.48 µM; in the assay on MDA-MB-231 breast, 1.72 µM; with IGROV1 ovarian it was 1.78 µM; with A498 renal it was 2.83 µM; in the assay on HT29 colon it was 2.46 µM; with HS 578T breast it was 5.64 µM. In addition, the GI50 in the assay on SF-268 CNS was 2.63 µM; in the assay with HL-60(TB) leukemia it was 0.967 µM; with MDA-MB-435, 1.8 µM; in the assay on SNB-19 CNS, 4.84 µM. Also, the TGI came out at 2.91 µM in the assay on BT-549 breast; 3.33 µM in the assay on MDA-MB-231 breast; 3.88 µM in the assay with IGROV1 ovarian; 11.8 µM in the assay on A498 renal; 5.58 µM in the assay with HT29 colon; 49 µM in the assay on HS 578T breast. Besides, the TGI in the assay on SF-268 CNS came out at 10.3 µM; with HL-60(TB) leukemia, 3.77 µM; with MDA-MB-435, 3.89 µM; in the assay with SNB-19 CNS it was 17.4 µM.

In the case of `COc1ccc(/C=C/c2nc(NCCCN(C)C)c3ccccc3n2)cc1`, the GI50 in the assay with BT-549 breast was 1.55 µM; in the assay on MDA-MB-231 breast, 1.99 µM; with IGROV1 ovarian, 3.39 µM; in the assay with A498 renal, 14 µM; in the assay on HT29 colon it was 1.61 µM; in the assay with HS 578T breast, 3.22 µM. Further, the GI50 in the assay on SF-268 CNS is 1.86 µM; in the assay with HL-60(TB) leukemia, 1.71 µM; in the assay on MDA-MB-435 it was 1.81 µM; in the assay on SNB-19 CNS, 4.31 µM. Also, the TGI with BT-549 breast worked out at 5.01 µM; in the assay on MDA-MB-231 breast, 5.24 µM; in the assay with IGROV1 ovarian it was 10.6 µM; with A498 renal, 27.7 µM; in the assay with HT29 colon, 3.13 µM; in the assay on HS 578T breast, 11 µM. For the same molecule, the TGI in the assay on SF-268 CNS came out at 4.17 µM; with HL-60(TB) leukemia, 3.86 µM; in the assay with MDA-MB-435, 3.65 µM; in the assay on SNB-19 CNS it was 9.67 µM.

As for `COCCOC(=O)NC(=O)Nc1ccc(/C(=N/O)c2ccc(Cl)cc2)cc1`, the GI50 in the assay on BT-549 breast was 0.58 µM; in the assay on MDA-MB-231 breast, 0.166 µM; with IGROV1 ovarian, 0.269 µM; in the assay on A498 renal it was 0.179 µM; with HT29 colon it was 0.108 µM; in the assay on HS 578T breast, 0.157 µM. The GI50 was 0.209 µM in the assay with SF-268 CNS, 0.0783 µM with HL-60(TB) leukemia, 0.092 µM with MDA-MB-435 and 0.535 µM in the assay with SNB-19 CNS. For the same molecule, the TGI in the assay with BT-549 breast is 39.6 µM; in the assay with MDA-MB-231 breast, 11 µM; with IGROV1 ovarian, above 69 µM; with A498 renal it was 3.46 µM; in the assay with HT29 colon, 15.3 µM; in the assay with HS 578T breast it was 34.3 µM. The TGI with SF-268 CNS was above 100 µM; in the assay with HL-60(TB) leukemia it was 0.137 µM; with MDA-MB-435 it was 0.374 µM; with SNB-19 CNS, above 100 µM.

On to `CN1CCCN(C)C1c1cc([N+](=O)[O-])ccc1O`, for which the TGI in the assay with BT-549 breast is above 100 µM; in the assay with MDA-MB-231 breast, above 100 µM; in the assay with IGROV1 ovarian it was above 100 µM; with A498 renal it was above 100 µM; with HT29 colon, above 100 µM; with HS 578T breast, 67.8 µM. Besides, the TGI was above 100 µM with SF-268 CNS, 61.4 µM in the assay with HL-60(TB) leukemia, above 100 µM in the assay on MDA-MB-435 and above 100 µM in the assay on SNB-19 CNS.

Regarding `CCCCCCCCCCN(CCCCCCCCCC)CC(=O)c1ccc2cc(Br)c3ccccc3c2c1`, the GI50 in the assay with BT-549 breast is 10.9 µM; with MDA-MB-231 breast, 1.67 µM; in the assay with IGROV1 ovarian, 1.84 µM; in the assay with A498 renal, 10.2 µM; in the assay with HT29 colon, 1.32 µM; with HS 578T breast it was 3.59 µM. Besides, the GI50 is 3.07 µM in the assay with SF-268 CNS, 2.01 µM in the assay with HL-60(TB) leukemia, 1.76 µM with MDA-MB-435 and 2.04 µM with SNB-19 CNS. Moreover, the TGI in the assay with BT-549 breast came to 23.6 µM; in the assay with MDA-MB-231 breast, 3.26 µM; with IGROV1 ovarian it was 3.6 µM; with A498 renal it was 22.4 µM; in the assay with HT29 colon it was 2.77 µM; with HS 578T breast it was 21.7 µM. The TGI was 9.47 µM in the assay on SF-268 CNS, 4.22 µM in the assay with HL-60(TB) leukemia, 3.42 µM in the assay on MDA-MB-435 and 5.75 µM in the assay on SNB-19 CNS.

Consider `O=C(Nc1ccc(F)cc1)c1c(NC(=O)C(F)(F)F)sc2c1CCCCC2`, for which the GI50 in the assay with BT-549 breast is 2.08 µM; in the assay on MDA-MB-231 breast, 1.75 µM; in the assay with IGROV1 ovarian, 2.99 µM; in the assay with A498 renal, 0.0527 µM; in the assay with HT29 colon, 2.48 µM; in the assay on HS 578T breast, 0.633 µM. Further, the GI50 in the assay on SF-268 CNS is 2.28 µM; with HL-60(TB) leukemia it was 2.68 µM; with MDA-MB-435, 2.69 µM; in the assay on SNB-19 CNS, 1.56 µM. Also, the TGI worked out at 6.85 µM with BT-549 breast; 7.3 µM in the assay with MDA-MB-231 breast; 15.5 µM in the assay with IGROV1 ovarian; 0.752 µM with A498 renal; 13.5 µM in the assay on HT29 colon; 4.57 µM with HS 578T breast. Moreover, the TGI in the assay on SF-268 CNS was found to be 88 µM; in the assay with HL-60(TB) leukemia it was 8.32 µM; in the assay with MDA-MB-435, 17 µM; with SNB-19 CNS it was 21.4 µM.

Regarding `Cn1c(=O)c(Oc2ccccc2F)cc2cnc(NC3CCOCC3)nc21`, the GI50 is above 25 µM in the assay on BT-549 breast; above 25 µM in the assay with MDA-MB-231 breast; above 25 µM in the assay with IGROV1 ovarian; above 14.7 µM with A498 renal; above 25 µM in the assay on HT29 colon; above 25 µM with HS 578T breast. Besides, the GI50 with SF-268 CNS, with HL-60(TB) leukemia, in the assay on MDA-MB-435 and in the assay on SNB-19 CNS was above 25 µM in each case. Besides, the TGI with BT-549 breast, in the assay on MDA-MB-231 breast, in the assay with IGROV1 ovarian, in the assay on A498 renal, in the assay on HT29 colon and with HS 578T breast was above 25 µM throughout. The TGI with SF-268 CNS, in the assay with HL-60(TB) leukemia, in the assay on MDA-MB-435 and in the assay on SNB-19 CNS was above 25 µM in each case.
